How the values were obtained:
Experiment in all cases: relative viability (nuclei count vs DMSO), 5 days (fraction); higher = more cells survive
Idelalisib + Foretinib = compound: CC[C@H](Nc1ncnc2[nH]cnc12)c1nc2cccc(F)c2c(=O)n1-c1ccccc1 [Idelalisib] + COc1cc2c(Oc3ccc(NC(=O)C4(C(=O)Nc5ccc(F)cc5)CC4)cc3F)ccnc2cc1OCCCN1CCOCC1 [Foretinib] (partner 0.25 µM)
Method in brief: (§1)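 Relative viability divides the nuclei count in treated wells by that in vehicle wells. Lung cancer cell lines were seeded in 1536-well plates, dosed by pin tool the next day, and fixed and stained after 5 days in one step with final 0.05% Triton X-100, 1% formaldehyde and 1 ug/ml Hoechst. Dosing was a single drug or a fixed anchor-drug dose plus five library-drug doses (not always all listed) in √10 steps, and values are medians of duplicate plates imaged at 4×.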

Idelalisib + Vorinostat = compound: CC[C@H](Nc1ncnc2[nH]cnc12)c1nc2cccc(F)c2c(=O)n1-c1ccccc1 [Idelalisib] + O=C(CCCCCCC(=O)Nc1ccccc1)NO [Vorinostat] (partner 1 µM)
Method in brief: as §1

Idelalisib + Olaparib = compound: CC[C@H](Nc1ncnc2[nH]cnc12)c1nc2cccc(F)c2c(=O)n1-c1ccccc1 [Idelalisib] + O=C(c1cc(Cc2n[nH]c(=O)c3ccccc23)ccc1F)N1CCN(C(=O)C2CC2)CC1 [Olaparib] (partner 8 µM)
Method in brief: as §1

Pemetrexed + Dasatinib = compound: Nc1nc2[nH]cc(CCc3ccc(C(=O)N[C@@H](CCC(=O)O)C(=O)O)cc3)c2c(=O)[nH]1 [Pemetrexed] + Cc1nc(Nc2ncc(C(=O)Nc3c(C)cccc3Cl)s2)cc(N2CCN(CCO)CC2)n1 [Dasatinib] (partner 0.075 µM)
Method in brief: as §1

UMC-11
relative viability (Idelalisib + Foretinib; first compound 0.04 µM): 0.957 | relative viability (Idelalisib + Foretinib; first compound 0.1265 µM): 1.07 | relative viability (Idelalisib + Foretinib; first compound 0.4 µM): 0.988 | relative viability (Idelalisib + Foretinib; first compound 1.265 µM): 1.03 | relative viability (Idelalisib + Foretinib; first compound 4 µM): 1.09 | relative viability (Idelalisib + Vorinostat; first compound 0.04 µM): 0.474 | relative viability (Idelalisib + Vorinostat; first compound 0.1265 µM): 0.392 | relative viability (Idelalisib + Vorinostat; first compound 0.4 µM): 0.363 | relative viability (Idelalisib + Vorinostat; first compound 1.265 µM): 0.437 | relative viability (Idelalisib + Vorinostat; first compound 4 µM): 0.358 | relative viability (Idelalisib + Olaparib; first compound 0.04 µM): 0.416 | relative viability (Idelalisib + Olaparib; first compound 0.1265 µM): 0.347 | relative viability (Idelalisib + Olaparib; first compound 0.4 µM): 0.407 | relative viability (Idelalisib + Olaparib; first compound 1.265 µM): 0.631 | relative viability (Idelalisib + Olaparib; first compound 4 µM): 0.351 | relative viability (Pemetrexed + Dasatinib; first compound 0.002 µM): 0.483 | relative viability (Pemetrexed + Dasatinib; first compound 0.006325 µM): 0.451 | relative viability (Pemetrexed + Dasatinib; first compound 0.02 µM): 0.468 | relative viability (Pemetrexed + Dasatinib; first compound 0.06325 µM): 0.442 | relative viability (Pemetrexed + Dasatinib; first compound 0.2 µM): 0.474
